Test results taken from the NIST ThermoML archive (doi:10.1021/je800348s).
± gives the expanded uncertainty stated by the source.

Experiment: xn = mol fraction of the nth substance listed
Details: 101 kPa, Liquid; for mass density: Vibrating tube method

C1C[C@@H]2[C@H]3CC[C@H](C3)[C@@H]2C1 [exo-tetrahydrodicyclopentadiene] + CCCCCCCC
Details | mass density, 293.15 K [kg/m3] | mass density, 298.15 K [kg/m3] | mass density, 303.15 K [kg/m3] | mass density, 313.15 K [kg/m3] | viscosity, 293.15 K [mPa·s] | viscosity, 298.15 K [mPa·s] | viscosity, 303.15 K [mPa·s] | viscosity, 313.15 K [mPa·s]
x2 = 0 | 935.2 ± 8 | 931.4 ± 8 | 927.7 ± 8 | 922.2 ± 8 | 3.064 ± 0.077 | 2.74 ± 0.069 | 2.514 ± 0.063 | 2.27 ± 0.057
x2 = 0.117 | 906.1 ± 8 | 901 ± 8 | 898.5 ± 8 | 893.5 ± 8 | 2.353 ± 0.06 | 2.109 ± 0.053 | 1.945 ± 0.049 | 1.769 ± 0.045
x2 = 0.2275 | 879.1 ± 8 | 874.5 ± 8 | 871.8 ± 8 | 866.6 ± 8 | 1.836 ± 0.047 | 1.665 ± 0.042 | 1.553 ± 0.039 | 1.421 ± 0.036
x2 = 0.3384 | 852.4 ± 8 | 848.1 ± 8 | 845.4 ± 8 | 839.8 ± 8 | 1.47 ± 0.037 | 1.351 ± 0.034 | 1.272 ± 0.032 | 1.166 ± 0.03
x2 = 0.4431 | 827.7 ± 8 | 823.6 ± 8 | 820.7 ± 8 | 814.9 ± 8 | 1.216 ± 0.031 | 1.12 ± 0.029 | 1.056 ± 0.027 | 0.9677 ± 0.025
x2 = 0.5439 | 804.2 ± 8 | 800.3 ± 8 | 797.2 ± 8 | 791 ± 8 | 1.027 ± 0.027 | 0.9508 ± 0.025 | 0.8917 ± 0.023 | 0.8212 ± 0.022
x2 = 0.6417 | 781.8 ± 8 | 778 ± 8 | 774.8 ± 8 | 768.3 ± 8 | 0.8793 ± 0.023 | 0.8194 ± 0.022 | 0.7691 ± 0.02 | 0.7085 ± 0.019
x2 = 0.7361 | 760.4 ± 8 | 756.6 ± 8 | 753.2 ± 8 | 746.4 ± 8 | 0.7663 ± 0.02 | 0.7198 ± 0.019 | 0.6752 ± 0.018 | 0.6197 ± 0.017
x2 = 0.8265 | 740.3 ± 8 | 736.5 ± 8 | 732.9 ± 8 | 725.6 ± 8 | 0.6722 ± 0.018 | 0.6345 ± 0.017 | 0.5929 ± 0.016 | 0.5424 ± 0.015
x2 = 0.9143 | 721.1 ± 8 | 717.1 ± 8 | 713.3 ± 8 | 705.6 ± 8 | 0.5988 ± 0.016 | 0.5681 ± 0.016 | 0.5302 ± 0.015 | 0.4839 ± 0.014

C1C[C@@H]2[C@H]3CC[C@H](C3)[C@@H]2C1 [exo-tetrahydrodicyclopentadiene] + CCCCCCCCCC
Details | mass density, 293.15 K [kg/m3] | mass density, 298.15 K [kg/m3] | mass density, 303.15 K [kg/m3] | mass density, 313.15 K [kg/m3] | viscosity, 293.15 K [mPa·s] | viscosity, 298.15 K [mPa·s] | viscosity, 303.15 K [mPa·s] | viscosity, 313.15 K [mPa·s]
x2 = 0 | 935.2 ± 8 | 931.4 ± 8 | 927.7 ± 8 | 922.2 ± 8 | 3.064 ± 0.077 | 2.74 ± 0.069 | 2.514 ± 0.063 | 2.27 ± 0.057
x2 = 0.095 | 912.7 ± 8 | 907.5 ± 8 | 905.4 ± 8 | 900.2 ± 8 | 2.631 ± 0.066 | 2.339 ± 0.059 | 2.191 ± 0.055 | 2.006 ± 0.051
x2 = 0.1934 | 890 ± 8 | 885.1 ± 8 | 882.8 ± 8 | 877.8 ± 8 | 2.26 ± 0.057 | 1.996 ± 0.05 | 1.889 ± 0.047 | 1.741 ± 0.044
x2 = 0.2908 | 868.3 ± 8 | 863.7 ± 8 | 861.2 ± 8 | 856.3 ± 8 | 1.964 ± 0.05 | 1.728 ± 0.044 | 1.638 ± 0.041 | 1.53 ± 0.039
x2 = 0.3902 | 846.8 ± 8 | 842.5 ± 8 | 839.8 ± 8 | 834.8 ± 8 | 1.717 ± 0.043 | 1.521 ± 0.038 | 1.441 ± 0.036 | 1.334 ± 0.034
x2 = 0.4893 | 826 ± 8 | 822 ± 8 | 819 ± 8 | 814 ± 8 | 1.525 ± 0.039 | 1.362 ± 0.034 | 1.287 ± 0.032 | 1.214 ± 0.031
x2 = 0.6147 | 800.7 ± 8 | 796.9 ± 8 | 793.7 ± 8 | 788.4 ± 8 | 1.348 ± 0.034 | 1.194 ± 0.03 | 1.143 ± 0.029 | 1.101 ± 0.028
x2 = 0.6905 | 786 ± 8 | 782.3 ± 8 | 779 ± 8 | 773.3 ± 8 | 1.245 ± 0.032 | 1.102 ± 0.028 | 1.058 ± 0.027 | 1.032 ± 0.026
x2 = 0.7895 | 767.4 ± 8 | 763.7 ± 8 | 760.3 ± 8 | 754.2 ± 8 | 1.13 ± 0.029 | 1.009 ± 0.026 | 0.9726 ± 0.025 | 0.9345 ± 0.024
x2 = 0.8952 | 748.2 ± 8 | 744.6 ± 8 | 740.9 ± 8 | 734.3 ± 8 | 1.032 ± 0.026 | 0.9181 ± 0.024 | 0.8852 ± 0.023 | 0.8537 ± 0.022
